Measurements published in US12077503B2, “Substituted cyclic amides and their use as herbicides” (FMC CORPORATION, priority 2015, dated 2024).

| melting point | SMILES |
| --- | --- |
| 163 to 167 °C | COc1cccc([C@H]2CN(C)C(=O)[C@@H]2C(=O)Nc2cccc(F)c2F)c1F [Compound 1072] |
| 113 to 117 °C | C=C(C)c1cccc([C@H]2CN(C)C(=O)[C@@H]2C(=O)Nc2cccc(F)c2F)c1 [Compound 1085] |
| 89 to 93 °C | C=C(C)c1cccc([C@H]2CN(C)C(=O)[C@@H]2C(=O)Nc2cccc(F)c2C)c1 [Compound 1086] |
